Data: patent US9994546B2, “Cyclopropylamines as LSD1 inhibitors” (Incyte Corporation, priority 2014, dated 2018)

Target: LSD-1 enzyme (Homo sapiens (Human), UniProt O60341)
Test: LANCE LSD1/KDM1A demethylase assay (LSD1 histone demethylase biochemical assay)
Details: 1 nM LSD-1 enzyme, 1 hour preincubation at 25° C., 0.4 μM biotin-labeled Histone H3 peptide substrate
Protocol: LANCE LSD1/KDM1A demethylase assay—10 μL of 1 nM LSD-1 enzyme (ENZO BML-SE544-0050) in the assay buffer (50 mM Tris, pH 7.5, 0.01% Tween-20, 25 mM NaCl, 5 mM DTT) were preincubated for 1 hour at 25° C. with 0.8 μL compound/DMSO dotted in black 384 well polystyrene plates. […] After stopping the reactions plates were incubated for 30 minutes and read on a PHERAstar FS plate reader (BMG Labtech).

Compound	IC50 [nM]
CNC(=O)CC1(N2CCC(N[C@@H]3C[C@H]3c3ccccc3)CC2)CN(CC2CC2)C1 [Example 124, 2-[1-(cyclopropylmethyl)-3-(4-{[(1R,2S)-2-phenylcyclopropyl]amino}piperidin-1-yl)azetidin-3-yl]-N-methylacetamide]	≤ 100
CN1CCC(N2CC(CN[C@@H]3C[C@H]3c3ccccc3)C2)CC1 (relative stereo) [Example 28, N-{[1-(1-Methylpiperidin-4-yl)azetidin-3-yl]methyl}-trans-2-phenylcyclopropanamine]	≤ 100
CN1CC(CC#N)(N2CCC(N[C@@H]3C[C@H]3c3ccccc3)CC2)C1 [Example 59, [1-methyl-3-(4-{[(1R,2S)-2-phenylcyclopropyl]amino}piperidin-1-yl)azetidin-3-yl]acetonitrile]	≤ 100
CN(C)C(=O)CC1(N2CCC(N[C@@H]3C[C@H]3c3ccccc3)CC2)CN(CC2CC2)C1 [Example 123, 2-[1-(cyclopropylmethyl)-3-(4-{[(1R,2S)-2-phenylcyclopropyl]amino}piperidin-1-yl)azetidin-3-yl]-N,N-dimethylacetamide]	≤ 100
CNC(=O)CC1(N2CCC(N[C@@H]3C[C@H]3c3ccccc3)CC2)CCC1 [Example 69, N-methyl-2-[1-(4-{[(1R,2S)-2-phenylcyclopropyl]amino}piperidin-1-yl)cyclobutyl]acetamide]	≤ 100
N#CCC1(N2CCC(N[C@@H]3C[C@H]3c3ccccc3)CC2)CNC1 [Example 60, [3-(4-{[(1R,2S)-2-phenylcyclopropyl]amino}piperidin-1-yl)azetidin-3-yl]acetonitrile]	≤ 100
N#CCC1(N2CCC(N[C@@H]3C[C@H]3c3ccccc3)CC2)CN(c2ccccc2C#N)C1 (relative stereo) [Example 12, 2-(3-(Cyanomethyl)-3-{4-[(trans-2-phenylcyclopropyl)amino]piperidin-1-yl}azetidin-1-yl)benzonitrile]	≤ 100
CN1CC(CC#N)(N2CCC(N[C@@H]3C[C@H]3c3ccccc3)CC2)C1 (relative stereo) [Example 2, (1-Methyl-3-{4-[(trans-2-phenylcyclopropyl)amino]piperidin-1-yl}azetidin-3-yl)acetonitrile]	≤ 100
N#CCC1(N2CCC(N[C@@H]3C[C@H]3c3ccccc3)CC2)CN(C(=O)N2CCOCC2)C1 [Example 86, [1-(morpholin-4-ylcarbonyl)-3-(4-{[(1R,2S)-2-phenylcyclopropyl]amino}piperidin-1-yl)azetidin-3-yl]acetonitrile]	≤ 100
O=C(O)CC1(N2CCC(N[C@@H]3C[C@H]3c3ccccc3)CC2)CN(Cc2nccs2)C1 [Example 129, [3-(4-{[(1R,2S)-2-phenylcyclopropyl]amino}piperidin-1-yl)-1-(1,3-thiazol-2-ylmethyl)azetidin-3-yl]acetic acid]	≤ 100
N#CCC1(N2CCC(N[C@@H]3C[C@H]3c3ccccc3)CC2)CN(C(=O)OC2CCOC2)C1 (stereo partly drawn) [Example 99, tetrahydrofuran-3-yl 3-(cyanomethyl)-3-(4-{[(1R,2S)-2-phenylcyclopropyl]amino}piperidin-1-yl)azetidine-1-carboxylate]	≤ 100
O=C(O)CC1(N2CCC(CN[C@@H]3C[C@H]3c3ccccc3)CC2)CCC1 [Example 105, {1-[4-({[(1R,2S)-2-phenylcyclopropyl]amino}methyl)piperidin-1-yl]cyclobutyl}acetic acid]	≤ 100
N#CCC1(N2CC(CN[C@@H]3C[C@H]3c3ccccc3)C2)CCC1 (relative stereo) [Example 14, [1-(3-{[(trans-2-Phenylcyclopropyl)amino]methyl}azetidin-1-yl)cyclobutyl]acetonitrile]	≤ 100
N#CCC1(N2CCC(N[C@@H]3C[C@H]3c3ccccc3)CC2)CN(C2CCOCC2)C1 [Example 75, [3-(4-{[(1R,2S)-2-phenylcyclopropyl]amino}piperidin-1-yl)-1-(tetrahydro-2H-pyran-4-yl)azetidin-3-yl]acetonitrile]	≤ 100
N#CCC1(N2CCC(CN[C@@H]3C[C@H]3c3ccccc3)CC2)CN(C(=O)c2ccc(F)cc2)C1 (relative stereo) [Example 48, [1-(4-Fluorobenzoyl)-3-(4-{[(trans-2-phenylcyclopropyl)amino]methyl}piperidin-1-yl)azetidin-3-yl]acetonitrile]	≤ 100
N#CCC1(N2CCC(N[C@@H]3C[C@H]3c3ccccc3)CC2)CN([C@H]2CC[C@@H](O)CC2)C1 [Example 73, [1-(cis-4-hydroxycyclohexyl)-3-(4-{[(1R,2S)-2-phenylcyclopropyl]amino}piperidin-1-yl)azetidin-3-yl]acetonitrile]	≤ 100
N#CCC1(N2CCC(N[C@@H]3C[C@H]3c3ccccc3)CC2)CN(C(=O)c2ccns2)C1 [Example 110, [1-(isothiazol-5-ylcarbonyl)-3-(4-{[(1R,2S)-2-phenylcyclopropyl]amino}piperidin-1-yl)azetidin-3-yl]acetonitrile]	≤ 100
CS(=O)(=O)N1CC(CC#N)(N2CCC(N[C@@H]3C[C@H]3c3ccc(F)cc3)CC2)C1 [Example 101, [3-(4-{[(1R,2S)-2-(4-fluorophenyl)cyclopropyl]amino}piperidin-1-yl)-1-(methylsulfonyl)azetidin-3-yl]acetonitrile]	≤ 100
N#CCC1(N2CCC(CN[C@@H]3C[C@H]3c3ccccc3)CC2)CN(c2cccc(Cl)c2C#N)C1 (relative stereo) [Example 38, 2-Chloro-6-[3-(cyanomethyl)-3-(4-{[(trans-2-phenylcyclopropyl)amino]methyl}piperidin-1-yl)azetidin-1-yl]benzonitrile]	≤ 100
N#CCC1(N2CCC(N[C@@H]3C[C@H]3c3ccccc3)CC2)CN(C2CCOC2)C1 (stereo partly drawn) [Example 76, [3-(4-{[(1R,2S)-2-phenylcyclopropyl]amino}piperidin-1-yl)-1-(tetrahydrofuran-3-yl)azetidin-3-yl]acetonitrile]	≤ 100
Cn1cc(C(=O)N2CC(CC#N)(N3CCC(N[C@@H]4C[C@H]4c4ccccc4)CC3)C2)cn1 [Example 80, [1-[(1-methyl-1H-pyrazol-4-yl)carbonyl]-3-(4-{[(1R,2S)-2-phenylcyclopropyl]amino}piperidin-1-yl)azetidin-3-yl]acetonitrile]	≤ 100
N#CCC1(N2CCC(N[C@@H]3C[C@H]3c3ccccc3)CC2)CN(C(=O)C2(O)CCCC2)C1 [Example 85, [1-[(1-hydroxycyclopentyl)carbonyl]-3-(4-{[(1R,2S)-2-phenylcyclopropyl]amino}piperidin-1-yl)azetidin-3-yl]acetonitrile]	≤ 100
N#CCC1(N2CCC(N[C@@H]3C[C@H]3c3ccccc3)CC2)CN(CCO)C1 [Example 74, [1-(2-hydroxyethyl)-3-(4-{[(1R,2S)-2-phenylcyclopropyl]amino}piperidin-1-yl)azetidin-3-yl]acetonitrile]	≤ 100
CN(C)C(=O)N1CCC(CC#N)(N2CC(CN[C@@H]3C[C@H]3c3ccccc3)C2)CC1 (relative stereo) [Example 23, 4-(Cyanomethyl)-N,N-dimethyl-4-(3-{[(trans-2-phenylcyclopropyl)amino]methyl}azetidin-1-yl)piperidine-1-carboxamide]	≤ 100
N#CCC1(N2CCC(N[C@@H]3C[C@H]3c3ccccc3)CC2)CN(c2ccc(C#N)cc2)C1 (relative stereo) [Example 13, 4-(3-(Cyanomethyl)-3-{4-[(trans-2-phenylcyclopropyl)amino]piperidin-1-yl}azetidin-1-yl)benzonitrile]	≤ 100
